Measurements as given in patent US6387950B2, “Treatment of tumors with RARα selective retinoid compounds in combination with other anti-tumor agents” (Allergan Sales, Inc., priority 2000, dated 2002).

Legend:
T47-D cells = assay: cell proliferation assay (BrdU incorporation), T47-D; assay type: cell-based, human
Description: The SKBR-3 and T47-D cell cultures in which the assay procedures were performed are also well known and are available from sources well known in the art. Specifically, as is known, T-47D is an estrogen receptor positive (ER^+) human breast cancer cell line, and SK-BR-3 is an estrogen receptor negative (ER^−) human breast cancer cell line. The assay procedure which itself is well known in the art, involves determining incorporation of 5-bromo-2′-deoxyuridine (BrdU) into the cells. As is known, incorporation of less BrdU represents less cell proliferation (inhibition of cell proliferation), and this assay is accepted in the art as a measure of anti-proliferative or anti-tumor activity of the assayed agent or agents.
The estrogen receptor-positive (ER^+) cell line T-47D and the ER^−-cell line SK-BR-3 were cultured in Dulbecco's modification of Eagle's medium (DMEM Gibco BRL, Gaithersburg, Md.) supplemented with 10% fetal bovine serum (HyClone, Logan, Utah), 2 mM L-glutamine and 1% antibiotics-antimycotics (Gibco BRL). Cell lines were obtained from the American Type Culture Collection (ATCC, Rockville, Md., HTB-133 and HTB-30 for T47-D and SKBR-3, respectively). Cells were cultured at 37° C. in a humidified atmosphere containing 5% CO2.
Proliferation of cancer cell lines was determined using a commercial cell proliferation kit (Roche Diagnostics), essentially following the instructions of the manufacturer. Cells were seeded into 96-well tissue culture plates (Corning Incorporated, Corning, N.Y.) at a concentration of 3000 cells/well. After 24 hours, cells were treated with Compound 2 (AGN195183) and/or interferons (IFNs) or solvent alone. The appropriate concentrations of Compound 2 (AGN195183) used in this study were between 10^−11M and 10^−6M; IFNs concentrations were between 25 and 1000 Unit/ml. Culture media were changed every 72 hours. After 7days, 10 μl of 5-bromo-2′-deoxyuridine (BrdU) was added to each well. Incubation with BrdU was stopped 24 hours later by adding 100 μl of anti-BrdU antibody to each well. The amount of BrdU incorporated into the DNA of proliferating cells was assessed by measuring absorbance at 450 nm. Each experiment was performed in triplicate.
The growth inhibition observed in the cell cultures as a result of treatment with a combination of Compound 2 (AGN195183) of the invention and the interferons (IFNs) was analyzed for synergistic and additive effects.
Synergism was defined as: %A×% B>%AB
Additivity was defined as: %A×%B=%AB
where A and B are the effects of each individual agent and AB is the effect of the combination, in accordance with the teaching of Aapro et al., Cancer Chemother. Pharmacol., 10: 161 -166, 1983, and Marth et al., J. Natl. Cancer Inst., 77:1197-1202, 1986), both of which are expressly incorporated herein by reference.
Referring now to the graphs of FIGS. 1 through 12, each of these represents the results obtained in the above described assays where SKBR-3 and T47-D cells, respectively, were treated with a combination of Compound 2 of the invention and human recombinant interferon (IFN) α, β, and γ, respectively. The graph of FIG. 13 illustrates the results of treatment of these two cell cultures only with Compound 2 of the invention, without the use of any other anti-tumor agent. In each of these graphs the incorporation of 5-bromo-2′-deoxyuridine (BrdU) is plotted on the Y (vertical) axis and varying concentration of Compound 2 of the invention or varying concentration of IFNα. IFNβ or of IFNγ, respectively is plotted on the X (horizontal) axis. The concentration of the interferons is expressed in international units, as is accepted in the art, whereas the molar concentration of Compound 2 is plotted on a logarithmic scale. […]

RARα receptors = target: T1, RARα receptors (Homo sapiens, UniProt P10276); assay: chimeric receptor transactivation assay, RARα; assay type: cell-based
T1 sequence (P10276 183-417 limits assumed): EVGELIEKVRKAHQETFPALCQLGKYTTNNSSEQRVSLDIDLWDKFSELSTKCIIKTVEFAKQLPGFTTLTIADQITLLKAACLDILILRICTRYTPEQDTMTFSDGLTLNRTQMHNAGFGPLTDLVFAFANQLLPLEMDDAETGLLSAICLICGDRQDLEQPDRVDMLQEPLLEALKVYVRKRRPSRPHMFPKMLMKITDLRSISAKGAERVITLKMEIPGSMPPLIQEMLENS
Excerpt: For example, a chimeric receptor transactivation assay which tests for agonist-like activity in the RARα, RARβ, RARγ, RXRα receptor subtypes, and which is based on work published by Feigner P. L. and Holm M. (1989) Focus, 112 is described in detail in U.S. Pat. No. 5,455,265. The specification of U.S. Pat. No. 5,455,265 is hereby expressly incorporated by reference.
The results obtained in this assay are expressed in EC50 numbers, as they are also in the chimeric receptor transactivation assay.

CC1(C)CCC(C)(C)c2c1cc(C(=O)Nc1cc(F)c(C(=O)O)c(F)c1)c(O)c2Cl [Compound 2, 2,6-Difluoro-4-[(3-hydroxy-4-chloro-5,5,8 8-tetramethyl-5,6,7,8-tetrahydronaphthalene-2-carbonyl) -amino]-benzoic acid]
anti-proliferative effect of the combination (BrdU incorporation) (T47-D cells; Compound 2 100 nM, IFNα varied, FIG. 7): additive
anti-proliferative effect of the combination (BrdU incorporation) (T47-D cells; Compound 2 100 nM, IFNβ varied, FIG. 8): significantly synergistic
anti-proliferative effect of the combination (BrdU incorporation) (T47-D cells; Compound 2 100 nM, IFNβ varied, FIG. 8, listed as AGN 195183): synergism
anti-proliferative effect of the combination (BrdU incorporation) (T47-D cells; Compound 2 100 nM, IFNγ varied, FIG. 9): significantly synergistic
anti-proliferative effect of the combination (BrdU incorporation) (T47-D cells; Compound 2 100 nM, IFNγ varied, FIG. 9, listed as AGN 195183): synergism
anti-proliferative effect of the combination (BrdU incorporation) (T47-D cells; IFNα 100 U/ml, Compound 2 varied, FIG. 10): not very effective and merely additive
anti-proliferative effect of the combination (BrdU incorporation) (T47-D cells; IFNβ 100 U/ml, Compound 2 varied, FIG. 11): synergistic inhibition
anti-proliferative effect of the combination (BrdU incorporation) (T47-D cells; IFNβ 100 U/ml, Compound 2 varied, FIG. 11, listed as AGN 195183): synergism
anti-proliferative effect of the combination (BrdU incorporation) (T47-D cells; IFNγ 100 U/ml, Compound 2 varied, FIG. 12): synergistic inhibition was observed, in the cotreatment with IFNγ only at higher concentrations of Compound 2
anti-proliferative effect of the combination (BrdU incorporation) (T47-D cells; IFNγ 100 U/ml, Compound 2 varied, FIG. 12, listed as AGN 195183): synergism
EC50 (RARα receptors): 180 nM
efficiency (RARα receptors): 75%
